US12466803B2 (priority 2021, dated 2025)

Test system: phospho (S293) BCKDHA in human skeletal myocytes
Test: Phospho BCKDHA Alpha Surefire Cell Assay
Type: cell-based
Conditions: Homo sapiens, 1 h, 60 minutes with compound, geometric mean

Row | SMILES | IC50
1 | O=C(O)c1sc2cc(Cl)ccc2c1-c1ccc(Cl)c(F)c1 [Example 20, 6-Chloro-3-(4-chloro-3-fluorophenyl)-1-benzothiophene-2-carboxylic acid] | 2400 nM
2 | O=C(O)c1sc2cc(F)ccc2c1-c1cc(F)c(F)c(O)c1F [Example 22, 6-Fluoro-3-(2,4,5-trifluoro-3-hydroxyphenyl)-1-benzothiophene-2-carboxylic acid] | 23000 nM
3 | O=C(O)c1sc2cc(F)ccc2c1-c1cc(F)c(F)c(Cl)c1F [Example 24, 3-(3-Chloro-2,4,5-trifluorophenyl)-6-fluoro-1-benzothiophene-2-carboxylic acid] | 400 nM
4 | COc1cccc(-c2c(C(=O)O)sc3ccccc23)c1F [Example 26, 3-(2-fluoro-3-methoxyphenyl)-1-benzothiophene-2-carboxylic acid] | 5500 nM
5 | O=C(O)c1sc2cc(F)ccc2c1-c1ccc2c(c1)CCCO2 [Example 28, 3-(3,4-dihydro-2H-1-benzopyran-6-yl)-6-fluoro-1-benzothiophene-2-carboxylic acid] | 4900 nM
6 | COc1cccc(-c2c(C(=O)O)sc3cc(Cl)ccc23)c1F [Example 30, 6-chloro-3-(2-fluoro-3-methoxyphenyl)-1-benzothiophene-2-carboxylic acid] | 2600 nM
7 | O=C(O)c1sc2cc(F)ccc2c1-c1ccc2c(c1F)CCCO2 [Example 32, 6-fluoro-3-(5-fluoro-3,4-dihydro-2H-1-benzopyran-6-yl)-1-benzothiophene-2-carboxylic acid] | 1900 nM
8 | O=C(O)c1sc2cc(Cl)ccc2c1-c1ccc(F)c(F)c1F [Example 33, 6-chloro-3-(2,3,4-trifluorophenyl)-1-benzothiophene-2-carboxylic acid] | 1100 nM
9 | CCOc1ccc(-c2c(C(=O)O)sc3cc(F)ccc23)c(F)c1F [Example 34, 3-(4-ethoxy-2,3-difluorophenyl)-6-fluoro-1-benzothiophene-2-carboxylic acid] | > 60000 nM
10 | COc1ccc(-c2c(C(=O)O)sc3cc(F)ccc23)c(F)c1F [Example 35, 3-(2,3-difluoro-4-methoxyphenyl)-6-fluoro-1-benzothiophene-2-carboxylic acid] | > 60000 nM
11 | COc1cc(-c2c(C(=O)O)sc3cc(F)ccc23)c(F)cc1Cl [Example 36, 3-(4-chloro-2-fluoro-5-methoxyphenyl)-6-fluoro-1-benzothiophene-2-carboxylic acid] | 3000 nM
12 | O=C(O)c1sc2cc(F)ccc2c1-c1ccc2c(c1)CCCC2 [Example 37, 6-fluoro-3-(5,6,7,8-tetrahydronaphthalen-2-yl)-1-benzothiophene-2-carboxylic acid] | 25000 nM
13 | Cc1c(Cl)ccc(-c2c(C(=O)O)sc3cc(F)ccc23)c1F [Example 38, 3-(4-chloro-2-fluoro-3-methylphenyl)-6-fluoro-1-benzothiophene-2-carboxylic acid] | 460 nM
14 | CCCOc1ccc(-c2c(C(=O)O)sc3cc(F)ccc23)c(F)c1F [Example 39, 3-(2,3-difluoro-4-propoxyphenyl)-6-fluoro-1-benzothiophene-2-carboxylic acid] | > 60000 nM
15 | CC1COc2cc(-c3c(C(=O)O)sc4cc(F)ccc34)ccc2C1 (stereo not drawn) [Example 40, 6-fluoro-3-(3-methyl-3,4-dihydro-2H-1-benzopyran-7-yl)-1-benzothiophene-2-carboxylic acid] | > 54000 nM
16 | O=C(O)c1sc2cc(F)ccc2c1-c1c(F)cccc1F [Example 48, 3-(2,6-difluorophenyl)-6-fluoro-1-benzothiophene-2-carboxylic acid] | 12000 nM
17 | COc1c(C#N)ccc(-c2c(C(=O)O)sc3cc(F)ccc23)c1F [Example 49, 3-(4-cyano-2-fluoro-3-methoxyphenyl)-6-fluoro-1-benzothiophene-2-carboxylic acid] | 7500 nM
18 | CCOc1c(Cl)ccc(-c2c(C(=O)O)sc3cc(F)ccc23)c1F [Example 51, 3-(4-chloro-3-ethoxy-2-fluorophenyl)-6-fluoro-1-benzothiophene-2-carboxylic acid] | 12000 nM
19 | COc1c(Cl)cc(F)c(-c2c(C(=O)O)sc3cc(F)ccc23)c1F [Example 52, 3-(4-chloro-2,6-difluoro-3-methoxyphenyl)-6-fluoro-1-benzothiophene-2-carboxylic acid] | 64 nM
20 | COCc1c(F)c(F)cc(-c2c(C(=O)O)sc3cc(F)ccc23)c1F [Example 53, 6-fluoro-3-[2,4,5-trifluoro-3-(methoxymethyl)phenyl]-1-benzothiophene-2-carboxylic acid] | 4200 nM
21 | COc1ccc(F)c(-c2c(C(=O)O)sc3cc(F)ccc23)c1F [Example 55, 3-(2,6-difluoro-3-methoxyphenyl)-6-fluoro-1-benzothiophene-2-carboxylic acid] | 1100 nM
22 | O=C(O)c1sc2cc(F)ccc2c1-c1c(F)cc(Cl)cc1F [Example 59, 3-(4-chloro-2,6-difluorophenyl)-6-fluoro-1-benzothiophene-2-carboxylic acid] | > 60000 nM
23 | O=C(O)c1sc2cc(F)ccc2c1-c1c(F)cc(F)cc1F [Example 60, 6-fluoro-3-(2,4,6-trifluorophenyl)-1-benzothiophene-2-carboxylic acid] | 2900 nM

Row | SMILES | IC50
24 | COc1ncc(F)c(-c2c(C(=O)O)sc3cc(F)ccc23)c1F [Example 61, 3-(3,5-difluoro-2-methoxypyridin-4-yl)-6-fluoro-1-benzothiophene-2-carboxylic acid] | 2100 nM
25 | COc1c(F)cc(F)c(-c2c(C(=O)O)sc3cc(Cl)ccc23)c1F [Example 63, 6-chloro-3-(2,4,6-trifluoro-3-methoxyphenyl)-1-benzothiophene-2-carboxylic acid] | 71 nM
26 | O=C(O)c1sc2cc(F)ccc2c1-c1ccc(Cl)cc1F [Example 64, 3-(4-chloro-2-fluorophenyl)-6-fluoro-1-benzothiophene-2-carboxylic acid] | 11000 nM
27 | O=C(O)c1sc2cc(F)ccc2c1-c1ccc(Cl)c(F)c1F [Example 65, 3-(4-chloro-2,3-difluorophenyl)-6-fluoro-1-benzothiophene-2-carboxylic acid] | 1800 nM
28 | O=C(O)c1sc2cc(F)ccc2c1-c1ccc2c(c1F)OCCC2 [Example 66, 6-fluoro-3-(8-fluoro-3,4-dihydro-2H-1-benzopyran-7-yl)-1-benzothiophene-2-carboxylic acid] | 3800 nM
29 | CC1CCc2cc(-c3c(C(=O)O)sc4cc(F)ccc34)c(F)cc2O1 (stereo not drawn) [Example 67, 6-fluoro-3-(7-fluoro-2-methyl-3,4-dihydro-2H-1-benzopyran-6-yl)-1-benzothiophene-2-carboxylic acid] | 5100 nM
30 | CC1CCc2cc(-c3c(C(=O)O)sc4cc(F)ccc34)cc(F)c2O1 (stereo not drawn) [Example 71, 6-fluoro-3-(8-fluoro-2-methyl-3,4-dihydro-2H-1-benzopyran-6-yl)-1-benzothiophene-2-carboxylic acid] | 4500 nM
31 | O=C(O)c1sc2cc(Cl)ccc2c1-c1ccccc1 [Example 74, 6-chloro-3-phenyl-1-benzothiophene-2-carboxylic acid] | > 60000 nM
32 | COc1c(C#N)cc(F)c(-c2c(C(=O)O)sc3cc(F)ccc23)c1F [Example 75, 3-(4-cyano-2,6-difluoro-3-methoxyphenyl)-6-fluoro-1-benzothiophene-2-carboxylic acid] | > 60000 nM
33 | CC1CCc2c(ccc(-c3c(C(=O)O)sc4cc(F)ccc34)c2F)O1 (stereo not drawn) [Example 76, 6-fluoro-3-(5-fluoro-2-methyl-3,4-dihydro-2H-1-benzopyran-6-yl)-1-benzothiophene-2-carboxylic acid] | 3600 nM
34 | COc1c(Cl)ccc(-c2c(C(=O)O)sc3cc(F)ccc23)c1F [Example 79, 3-(4-chloro-2-fluoro-3-methoxyphenyl)-6-fluoro-1-benzothiophene-2-carboxylic acid] | 230 nM
35 | CC1CCc2c(cc(F)c(-c3c(C(=O)O)sc4cc(Cl)ccc34)c2F)O1 (stereo not drawn) [Example 80, 6-chloro-3-(5,7-difluoro-2-methyl-3,4-dihydro-2H-1-benzopyran-6-yl)-1-benzothiophene-2-carboxylic acid] | 4000 nM
36 | CCc1c(F)ccc(-c2c(C(=O)O)sc3cc(F)ccc23)c1F [Example 86, 3-(3-ethyl-2,4-difluorophenyl)-6-fluoro-1-benzothiophene-2-carboxylic acid] | 310 nM
37 | CCOc1ccc(F)c(-c2c(C(=O)O)sc3cc(F)ccc23)c1F [Example 93, 3-(3-ethoxy-2,6-difluorophenyl)-6-fluoro-1-benzothiophene-2-carboxylic acid] | 17000 nM
38 | Cc1cc(-c2c(C(=O)O)sc3cc(F)ccc23)c(F)cc1F [Example 95, 3-(2,4-difluoro-5-methylphenyl)-6-fluoro-1-benzothiophene-2-carboxylic acid] | 1000 nM
39 | O=C(O)c1sc2cc(F)ccc2c1-c1c(F)ccc(Cl)c1F [Example 97, 3-(3-chloro-2,6-difluorophenyl)-6-fluoro-1-benzothiophene-2-carboxylic acid] | 540 nM
40 | Cc1cc(-c2c(C(=O)O)sc3cc(F)ccc23)c(F)cc1Cl [Example 106, 3-(4-chloro-2-fluoro-5-methylphenyl)-6-fluoro-1-benzothiophene-2-carboxylic acid] | 480 nM
41 | O=C(O)c1sc2cc(F)ccc2c1-c1c(F)cncc1F [Example 107, ammonium 3-(3,5-difluoropyridin-4-yl)-6-fluoro-1-benzothiophene-2-carboxylate] | 8600 nM
42 | O=C(O)c1sc2cc(F)ccc2c1-c1cc(Cl)c(F)cc1F [Example 108, 3-(5-chloro-2,4-difluorophenyl)-6-fluoro-1-benzothiophene-2-carboxylic acid] | 620 nM
43 | O=C(O)c1sc2cc(F)ccc2c1-c1cc(F)c(F)c(F)c1F [Example 109, 6-fluoro-3-(2,3,4,5-tetrafluorophenyl)-1-benzothiophene-2-carboxylic acid] | 600 nM
44 | CCc1ncc(F)c(-c2c(C(=O)O)sc3cc(F)ccc23)c1F [Example 110, 3-(2-ethyl-3,5-difluoropyridin-4-yl)-6-fluoro-1-benzothiophene-2-carboxylic acid] | 550 nM
45 | O=C(O)c1sc2cc(F)ccc2c1-c1cc(F)cc(F)c1Cl [Example 111, ammonium 3-(2-chloro-3,5-difluorophenyl)-6-fluoro-1-benzothiophene-2-carboxylate] | > 60000 nM
